From US9096518B2, “Substituted hydroxamic acids and uses thereof” (Millennium Pharmaceuticals, Inc., priority 2009, dated 2015)

What follows are compounds tested against T1, purified human HDAC6 (Homo sapiens, UniProt Q9UBN7) (assay: HDAC6 Enzyme Assay).
T1 construct: purchased BPS Bioscience 5006
T1 sequence (Q9UBN7 1-1215): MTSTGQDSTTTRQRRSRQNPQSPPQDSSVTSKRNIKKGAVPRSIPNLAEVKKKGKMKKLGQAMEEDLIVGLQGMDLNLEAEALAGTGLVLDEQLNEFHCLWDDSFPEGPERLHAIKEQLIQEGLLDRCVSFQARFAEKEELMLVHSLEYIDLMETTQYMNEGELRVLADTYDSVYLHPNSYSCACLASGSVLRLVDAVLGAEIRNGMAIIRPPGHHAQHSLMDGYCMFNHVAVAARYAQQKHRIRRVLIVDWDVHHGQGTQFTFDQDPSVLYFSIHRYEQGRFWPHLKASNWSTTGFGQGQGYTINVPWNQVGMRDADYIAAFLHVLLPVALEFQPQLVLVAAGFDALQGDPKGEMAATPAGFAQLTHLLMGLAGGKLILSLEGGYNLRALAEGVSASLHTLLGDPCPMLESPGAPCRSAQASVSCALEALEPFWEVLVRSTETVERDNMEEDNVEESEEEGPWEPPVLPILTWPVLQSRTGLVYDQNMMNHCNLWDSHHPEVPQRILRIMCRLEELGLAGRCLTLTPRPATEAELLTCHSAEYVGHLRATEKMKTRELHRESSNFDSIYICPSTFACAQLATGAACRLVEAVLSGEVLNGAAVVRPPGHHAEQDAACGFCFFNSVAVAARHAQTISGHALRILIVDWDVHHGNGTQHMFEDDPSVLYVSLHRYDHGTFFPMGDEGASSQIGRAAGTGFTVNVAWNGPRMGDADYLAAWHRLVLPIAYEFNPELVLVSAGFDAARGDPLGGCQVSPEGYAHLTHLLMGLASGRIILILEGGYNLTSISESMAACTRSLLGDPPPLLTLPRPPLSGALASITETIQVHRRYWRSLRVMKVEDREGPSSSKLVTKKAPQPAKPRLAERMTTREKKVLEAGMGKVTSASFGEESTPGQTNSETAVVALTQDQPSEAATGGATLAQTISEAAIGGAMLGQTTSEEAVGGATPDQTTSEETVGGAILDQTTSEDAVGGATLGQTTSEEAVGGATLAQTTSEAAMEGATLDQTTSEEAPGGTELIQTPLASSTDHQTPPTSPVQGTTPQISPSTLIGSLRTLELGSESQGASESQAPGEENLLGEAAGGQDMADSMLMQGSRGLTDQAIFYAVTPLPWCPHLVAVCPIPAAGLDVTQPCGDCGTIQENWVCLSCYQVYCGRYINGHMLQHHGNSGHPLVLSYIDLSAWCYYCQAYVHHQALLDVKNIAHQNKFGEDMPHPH
Assay type: biochemical
Procedure: To measure the inhibition of HDAC6 activity, purified human HDAC6 (BPS Bioscience; Cat. No. 5006) is incubated with substrate Ac-Arg-Gly-Lys(Ac)-AMC peptide (Bachem Biosciences; Cat. No. I-1925) for 1 hour at 30° C. in the presence of test compounds or vehicle DMSO control. The reaction is stopped with the HDAC inhibitor trichostatin A (Sigma; Cat. No. T8552) and the amount of Arg-Gly-Lys-AMC generated is quantitated by digestion with trypsin (Sigma; Cat. No. T1426) and subsequent measurement of the amount of AMC released using a fluorescent plate reader (Pherastar; BMG Technologies) set at Ex 340 nm and Em 460 nm. Concentration response curves are generated by calculating the fluorescence increase in test compound-treated samples relative to DMSO-treated controls, and enzyme inhibition (IC50) values are determined from those curves.
Compound `COc1cccc(CC(=O)N2CCc3cc(C(=O)NO)ccc3C2)c1` [Compound 34, N-hydroxy-2-[(3-methoxyphenyl)acetyl]-1,2,3,4-tetrahydroisoquinoline-6-carboxamide] has an IC50 of 50 to 100 nM. For `CC(C)c1ccc(CC(=O)N2CCc3cc(C(=O)NO)ccc3C2)cc1` [Compound 35, N-hydroxy-2-[(4-isopropylphenyl)acetyl]-1,2,3,4-tetrahydroisoquinoline-6-carboxamide], the IC50 was 100 to 500 nM. Compound `CC(=O)N1CCC(C(=O)N2CCc3cc(C(=O)NO)ccc3C2)CC1` [Compound 36, 2-[(1-acetylpiperidin-4-yl)carbonyl]-N-hydroxy-1,2,3,4-tetrahydroisoquinoline-6-carboxamide] has an IC50 of 100 to 500 nM. `Cc1cc(C(F)(F)F)nn1CC(=O)N1CCc2cc(C(=O)NO)ccc2C1` [Compound 37, N-hydroxy-2-{[5-methyl-3-(trifluoromethyl)-1H-pyrazol-1-yl]acetyl}-1,2,3,4-tetrahydroisoquinoline-6-carboxamide] was tested, and the IC50 was 100 to 500 nM. `CCCCS(=O)(=O)N1CCc2cc(C(=O)NO)ccc2C1` [Compound 38, 2-(butylsulfonyl)-N-hydroxy-1,2,3,4-tetrahydroisoquinoline-6-carboxamide] was tested, and the IC50 was 50 to 100 nM. `O=C(NO)c1ccc2c(c1)CCN(S(=O)(=O)Cc1ccccc1)C2` [Compound 39, 2-(benzylsulfonyl)-N-hydroxy-1,2,3,4-tetrahydroisoquinoline-6-carboxamide] was tested, and the IC50 was 50 to 100 nM. Compound `CCCS(=O)(=O)N1CCc2cc(C(=O)NO)ccc2C1` [Compound 40, N-hydroxy-2-(propylsulfonyl)-1,2,3,4-tetrahydroisoquinoline-6-carboxamide] has an IC50 of 100 to 500 nM. For `CC(C)c1ccc(S(=O)(=O)N2CCc3cc(C(=O)NO)ccc3C2)cc1` [Compound 42, N-hydroxy-2-[(4-isopropylphenyl)sulfonyl]-1,2,3,4-tetrahydroisoquinoline-6-carboxamide], the IC50 was 100 to 500 nM. `COc1ccc(-c2ccc(S(=O)(=O)N3CCc4cc(C(=O)NO)ccc4C3)cc2)cc1` [Compound 43, N-hydroxy-2-[(4′-methoxybiphenyl-4-yl)sulfonyl]-1,2,3,4-tetrahydroisoquinoline-6-carboxamide] was tested, and the IC50 was 50 to 100 nM. `CC(C)(C)c1ccc(S(=O)(=O)N2CCc3cc(C(=O)NO)ccc3C2)cc1` [Compound 44, 2-[(4-tert-butylphenyl)sulfonyl]-N-hydroxy-1,2,3,4-tetrahydroisoquinoline-6-carboxamide] was tested, and the IC50 was 50 to 100 nM. `Cc1ccc(S(=O)(=O)N2CCc3cc(C(=O)NO)ccc3C2)cc1` [Compound 45, N-hydroxy-2-[(4-methylphenyl)sulfonyl]-1,2,3,4-tetrahydroisoquinoline-6-carboxamide] gave an IC50 of 50 to 100 nM. Work on `O=C(NO)c1ccc2c(c1)CCN(S(=O)(=O)c1ccc3ccccc3c1)C2` [Compound 47, N-hydroxy-2-(2-naphthylsulfonyl)-1,2,3,4-tetrahydroisoquinoline-6-carboxamide] yielded an IC50 of under 50 nM. Compound `O=C(NO)c1ccc2c(c1)CCN(S(=O)(=O)c1cccc(-c3ccc(F)cc3)c1)C2` [Compound 48, 2-[(4′-fluorobiphenyl-3-yl)sulfonyl]-N-hydroxy-1,2,3,4-tetrahydroisoquinoline-6-carboxamide] has an IC50 of 50 to 100 nM. In the case of `COc1ccc(S(=O)(=O)N2CCc3cc(C(=O)NO)ccc3C2)cc1` [Compound 49, N-hydroxy-2-[(4-methoxyphenyl)sulfonyl]-1,2,3,4-tetrahydroisoquinoline-6-carboxamide], the IC50 is reported as under 50 nM. With `O=C(NO)c1ccc2c(c1)CCN(S(=O)(=O)c1ccc(F)cc1)C2` [Compound 50, 2-[(4-fluorophenyl)sulfonyl]-N-hydroxy-1,2,3,4-tetrahydroisoquinoline-6-carboxamide] the IC50 was 100 to 500 nM. Compound `Cc1nc(S(=O)(=O)N2CCc3cc(C(=O)NO)ccc3C2)cn1C` [Compound 51, 2-[(1,2-dimethyl-1H-imidazol-4-yl)sulfonyl]-N-hydroxy-1,2,3,4-tetrahydroisoquinoline-6-carboxamide] has an IC50 of 100 to 500 nM. `O=C(NO)c1ccc2c(c1)CCN(S(=O)(=O)c1ccc(C(F)(F)F)cc1)C2` [Compound 52, N-hydroxy-2-{[4-(trifluoromethyl)phenyl]sulfonyl}-1,2,3,4-tetrahydroisoquinoline-6-carboxamide] gave an IC50 of 50 to 100 nM. `Cc1noc(C)c1S(=O)(=O)N1CCc2cc(C(=O)NO)ccc2C1` [Compound 53, 2-[(3,5-dimethylisoxazol-4-yl)sulfonyl]-N-hydroxy-1,2,3,4-tetrahydroisoquinoline-6-carboxamide] was tested, and the IC50 was 100 to 500 nM. In the case of `Cc1n[nH]c(C)c1S(=O)(=O)N1CCc2cc(C(=O)NO)ccc2C1` [Compound 54, 2-[(3,5-dimethyl-1H-pyrazol-4-yl)sulfonyl]-N-hydroxy-1,2,3,4-tetrahydroisoquinoline-6-carboxamide], the IC50 is reported as 50 to 100 nM. Compound `O=C(NO)c1ccc2c(c1)CCN(S(=O)(=O)c1ccc(Oc3ccncc3)cc1)C2` [Compound 55, N-hydroxy-2-{[4-(pyridin-4-yloxy)phenyl]sulfonyl}-1,2,3,4-tetrahydroisoquinoline-6-carboxamide] has an IC50 of 100 to 500 nM. `O=C(NO)c1ccc2c(c1)CCN(S(=O)(=O)CC(c1ccccc1)c1ccccc1)C2` [Compound 56, 2-[(2,2-diphenylethyl)sulfonyl]-N-hydroxy-1,2,3,4-tetrahydroisoquinoline-6-carboxamide] was tested, and the IC50 was 100 to 500 nM. `O=C(NO)c1ccc2c(c1)CCN(Cc1ccccc1)C2` [Compound 57, 2-benzyl-N-hydroxy-1,2,3,4-tetrahydroisoquinoline-6-carboxamide] was tested, and the IC50 was 50 to 100 nM. `O=C(NO)c1ccc2c(c1)CCN(CCc1cccc3ccccc13)C2` [Compound 58, N-hydroxy-2-[2-(1-naphthyl)ethyl]-1,2,3,4-tetrahydroisoquinoline-6-carboxamide] showed an IC50 of 50 to 100 nM. Work on `O=C(NO)c1ccc2c(c1)CCN(Cc1ccc(-n3cncn3)cc1)C2` [Compound 59, N-hydroxy-2-[4-(1H-1,2,4-triazol-1-yl)benzyl]-1,2,3,4-tetrahydroisoquinoline-6-carboxamide] yielded an IC50 of 100 to 500 nM. `O=C(NO)c1ccc2c(c1)CCN(Cc1ccc3ccccc3n1)C2` [Compound 60, N-hydroxy-2-(quinolin-2-ylmethyl)-1,2,3,4-tetrahydroisoquinoline-6-carboxamide] was tested, and the IC50 was 50 to 100 nM. Compound `O=C(NO)c1ccc2c(c1)CCN(Cc1ccc(OC(F)(F)F)cc1)C2` [Compound 61, N-hydroxy-2-[4-(trifluoromethoxy)benzyl]-1,2,3,4-tetrahydroisoquinoline-6-carboxamide] has an IC50 of 100 to 500 nM. For `O=C(NO)c1ccc2c(c1)CCN(CCCc1ccccc1)C2` [Compound 62, N-hydroxy-2-(3-phenylpropyl)-1,2,3,4-tetrahydroisoquinoline-6-carboxamide], the IC50 was 100 to 500 nM. `O=C(NO)c1ccc2c(c1)CCN(CCOc1ccccc1)C2` [Compound 63, N-hydroxy-2-(2-phenoxyethyl)-1,2,3,4-tetrahydroisoquinoline-6-carboxamide] gave an IC50 of 100 to 500 nM. Compound `O=C(NO)c1ccc2c(c1)CCN(C/C=C/c1ccccc1)C2` [Compound 64, N-hydroxy-2-[(2E)-3-phenylprop-2-en-1-yl]-1,2,3,4-tetrahydroisoquinoline-6-carboxamide] has an IC50 of 100 to 500 nM. With `O=C(NO)c1ccc2c(c1)CCN(Cc1ccc3nonc3c1)C2` [Compound 65, 2-(2,1,3-benzoxadiazol-5-ylmethyl)-N-hydroxy-1,2,3,4-tetrahydroisoquinoline-6-carboxamide] the IC50 was 100 to 500 nM. With `O=C(NO)c1ccc2c(c1)CCN(Cc1ccc(C(F)(F)F)cc1)C2` [Compound 66, N-hydroxy-2-[4-(trifluoromethyl)benzyl]-1,2,3,4-tetrahydroisoquinoline-6-carboxamide] the IC50 was 100 to 500 nM. `O=C(NO)c1ccc2c(c1)CCN(CCCOc1ccccc1)C2` [Compound 67, N-hydroxy-2-(3-phenoxypropyl)-1,2,3,4-tetrahydroisoquinoline-6-carboxamide] gave an IC50 of 100 to 500 nM.
